# Key:
# [1] = target: T1, α2 subtype containing GABA-A receptors (Homo sapiens, UniProt P18507+P47869); assay: Two-electrode voltage clamp electrophysiology in Xenopus oocytes, potentiation of GABA EC20 response, α2; assay type: cell-based; details: 100 nM compound; for activation at 0.1 µM: read-out: Percentage of potentiation alpha2
# T1 construct: expressed in transfected cells; host or cells: Xenopus laevis oocytes, cRNA injected
# Procedure, shortened: (§1)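 Stage 5–6 Xenopus oocytes were injected with cRNA for human α subunit plus β3 and γ2L, then voltage-clamped at −80 mV under ND96 perfusion. Each received 60 μM GABA (EC20), a 1 μM chlordiazepoxide control, and then a single 100 nM compound application.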
# [2] = tested on: central benzodiazepine receptors; assay: Central benzodiazepine receptor binding (test of Speth et al.); details: 1000 nM of the compound
# Procedure, shortened: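 Values are percent inhibition of central benzodiazepine receptor binding at 1000 nM compound (initial single-point screen at 1.0E-09, 1.0E-07 and 1.0E-05 M). Speth et al. binding test; nonspecific binding defined with excess unlabelled ligand and subtracted from total.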
# [3] = target: T2, α1 subtype containing GABA-A receptors (Homo sapiens, UniProt P14867+P18507); assay: Two-electrode voltage clamp electrophysiology in Xenopus oocytes, potentiation of GABA EC20 response, α1; assay type: cell-based; details: 100 nM compound; for activation at 0.1 µM: read-out: Percentage of potentiation alpha1
# T2 construct: expressed in transfected cells; host or cells: Xenopus laevis oocytes, cRNA injected
# T2 sequence (P14867 28-456): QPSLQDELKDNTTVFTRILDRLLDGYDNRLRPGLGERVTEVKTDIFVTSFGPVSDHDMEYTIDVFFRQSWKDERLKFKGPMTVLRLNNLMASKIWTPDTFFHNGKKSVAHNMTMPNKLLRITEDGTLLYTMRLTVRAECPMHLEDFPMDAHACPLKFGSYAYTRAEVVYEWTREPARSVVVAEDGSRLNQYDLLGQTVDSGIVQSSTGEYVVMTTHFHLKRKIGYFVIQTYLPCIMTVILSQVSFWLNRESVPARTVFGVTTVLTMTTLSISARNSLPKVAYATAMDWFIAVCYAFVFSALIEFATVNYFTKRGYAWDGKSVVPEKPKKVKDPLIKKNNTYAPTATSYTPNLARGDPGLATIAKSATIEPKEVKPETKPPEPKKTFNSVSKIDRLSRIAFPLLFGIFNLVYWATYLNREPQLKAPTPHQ
# T2 sequence (P28472 26-473 partner): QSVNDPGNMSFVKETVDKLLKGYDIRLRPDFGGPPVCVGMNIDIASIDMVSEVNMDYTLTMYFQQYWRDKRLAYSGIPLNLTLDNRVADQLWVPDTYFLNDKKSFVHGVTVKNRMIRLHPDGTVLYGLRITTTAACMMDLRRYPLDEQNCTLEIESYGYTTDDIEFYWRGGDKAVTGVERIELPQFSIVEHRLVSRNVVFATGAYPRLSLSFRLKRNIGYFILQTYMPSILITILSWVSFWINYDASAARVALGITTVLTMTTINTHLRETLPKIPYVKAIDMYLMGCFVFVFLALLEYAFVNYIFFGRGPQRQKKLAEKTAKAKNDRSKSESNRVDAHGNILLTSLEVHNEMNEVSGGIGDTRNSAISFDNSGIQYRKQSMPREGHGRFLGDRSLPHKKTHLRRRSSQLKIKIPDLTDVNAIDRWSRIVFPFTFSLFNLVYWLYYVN
# T2 sequence (P18507 40-475): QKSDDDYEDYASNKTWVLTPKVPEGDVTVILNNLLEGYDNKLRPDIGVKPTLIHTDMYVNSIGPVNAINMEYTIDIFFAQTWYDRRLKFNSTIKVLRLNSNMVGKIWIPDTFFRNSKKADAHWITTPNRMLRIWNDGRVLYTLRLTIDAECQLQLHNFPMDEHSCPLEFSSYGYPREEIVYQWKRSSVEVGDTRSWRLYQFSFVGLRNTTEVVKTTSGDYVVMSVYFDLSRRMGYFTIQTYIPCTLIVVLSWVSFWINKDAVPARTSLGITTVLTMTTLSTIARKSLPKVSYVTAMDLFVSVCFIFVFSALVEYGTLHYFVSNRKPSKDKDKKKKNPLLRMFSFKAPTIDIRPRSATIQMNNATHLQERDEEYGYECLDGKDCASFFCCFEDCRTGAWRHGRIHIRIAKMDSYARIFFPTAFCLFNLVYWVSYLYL
# Procedure, shortened: as §1
# T1 sequence (P47869 29-451): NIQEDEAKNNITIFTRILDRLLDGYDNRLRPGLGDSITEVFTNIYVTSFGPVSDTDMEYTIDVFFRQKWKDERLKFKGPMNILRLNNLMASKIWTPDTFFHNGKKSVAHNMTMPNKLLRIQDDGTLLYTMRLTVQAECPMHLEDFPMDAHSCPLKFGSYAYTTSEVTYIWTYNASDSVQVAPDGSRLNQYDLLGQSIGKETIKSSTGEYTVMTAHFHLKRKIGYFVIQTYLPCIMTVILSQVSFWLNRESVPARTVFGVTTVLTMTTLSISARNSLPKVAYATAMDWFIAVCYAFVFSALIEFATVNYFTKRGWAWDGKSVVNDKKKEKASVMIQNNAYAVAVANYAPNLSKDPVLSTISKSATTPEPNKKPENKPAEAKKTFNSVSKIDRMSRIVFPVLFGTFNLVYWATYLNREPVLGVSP
# T1 sequence (P28472 26-473 partner): as the sequence (P28472 26-473 partner) above
# T1 sequence (P18507 40-475): as the sequence (P18507 40-475) above
smiles,measurement,setting,value
"CCNCc1ccnc(NCc2c(-c3ccc(F)cc3)nc3ccc(C)cn23)n1 [Compound 196, 4-((ethylamino)methyl)-N-((2-(4-fluorophenyl)-6-methylimidazo[1,2-a]pyridin-3-yl)methyl)pyrimidin-2-amine]",activation at 0.1 µM,[1],≥ 50%
same,% Inhibition at 1000 nM for CBZD,[2],++ (percentage of inhibition of central BZD site binding is greater than 80% in the presence of 1000 nM of the compound)
same,activation at 0.1 µM,[3],≥ 50%
Fc1ccc(-c2nc3ccc(Cl)cn3c2CNc2nccc(C3CCCN3)n2)cc1 (stereo not drawn) [Compound 195],activation at 0.1 µM,[1],≥ 50%
same,% Inhibition at 1000 nM for CBZD,[2],++ (percentage of inhibition of central BZD site binding is greater than 80% in the presence of 1000 nM of the compound)
same,activation at 0.1 µM,[3],≥ 50%
"COC(=O)c1ncnn1Cc1c(-c2ccccc2)nc2ccc(Cl)cn12 [Compound 44, 2-(6-Chloro-2-phenyl-imidazo[1,2-a]pyridin-3-ylmethyl)-2H-[1,2,4]triazole-3-carboxylic acid methyl ester]",activation at 0.1 µM,[1],-10 to 10%
same,% Inhibition at 1000 nM for CBZD,[2],++ (percentage of inhibition of central BZD site binding is greater than 80% in the presence of 1000 nM of the compound)
same,activation at 0.1 µM,[3],-10 to 10%
"CN(CCO)c1cncc(Cc2c(-c3ccc(Cl)cc3)nc3ccccn23)n1 [Compound 192, 2-((6-((2-(4-chlorophenyl)imidazo[1,2-a]pyridin-3-yl)methyl)pyrazin-2-yl)(methyl)amino)ethanol]",activation at 0.1 µM,[1],10 to 50%
same,% Inhibition at 1000 nM for CBZD,[2],++ (percentage of inhibition of central BZD site binding is greater than 80% in the presence of 1000 nM of the compound)
same,activation at 0.1 µM,[3],10 to 50%
"O=c1[nH]c(=O)n(Cc2c(-c3ccc(Cl)cc3)nc3ccccn23)cc1F [Compound 127, 1-((2-(4-chlorophenyl)imidazo[1,2-a]pyridin-3-yl)methyl)-5-fluoropyrimidine-2,4(1H,3H)-dione]",activation at 0.1 µM,[1],10 to 50%
same,% Inhibition at 1000 nM for CBZD,[2],+ (percentage of inhibition of central BZD site binding is greater than 50% but less than 80% in the presence of 1000 nM of the compound)
same,activation at 0.1 µM,[3],-10 to 10%
"Brc1ccc(-c2nc3ccccn3c2Cn2cncn2)cc1 [Compound 64, 3-((1H-1,2,4-triazol-1-yl)methyl)-2-(4-bromophenyl)H-imidazo[1,2-a]pyridine]",Percentage of potentiation alpha2,[1],+ (percentage of potentiation is greater than or equal to 10% but less than 50% in the presence of 100 nM of the compound)
same,% Inhibition at 1000 nM for CBZD,[2],++ (percentage of inhibition of central BZD site binding is greater than 80% in the presence of 1000 nM of the compound)
same,Percentage of potentiation alpha1,[3],+ (percentage of potentiation is greater than or equal to 10% but less than 50% in the presence of 100 nM of the compound)
"CN1CCN(C2=CC(=O)N(Cc3c(-c4ccc(Cl)cc4)nc4ccccn34)C2)CC1 [Compound 238, 1-((2-(4-chlorophenyl)imidazo[1,2-a]pyridin-3-yl)methyl)-4-(4-methylpiperazin-1-yl)-1H-pyrrol-2(5H)-one]",activation at 0.1 µM,[1],10 to 50%
same,% Inhibition at 1000 nM for CBZD,[2],++ (percentage of inhibition of central BZD site binding is greater than 80% in the presence of 1000 nM of the compound)
same,activation at 0.1 µM,[3],10 to 50%
"Cc1nnc(Cc2c(-c3ccc(Cl)cc3)nc3ccccn23)[nH]1 [Compound 233, 2-(4-chlorophenyl)-3-((5-methyl-4H-1,2,4-triazol-3-yl)methyl)imidazo[1,2-a]pyridine]",activation at 0.1 µM,[1],≥ 50%
same,% Inhibition at 1000 nM for CBZD,[2],++ (percentage of inhibition of central BZD site binding is greater than 80% in the presence of 1000 nM of the compound)
same,activation at 0.1 µM,[3],10 to 50%
"Cc1ccc(-c2nc3ccc(C)cn3c2Cn2cccn2)cc1 [Compound 8, 3-((1H-pyrazol-1-yl)methyl)-6-methyl-2-p-tolylH-imidazo[1,2-a]pyridine]",Percentage of potentiation alpha2,[1],+ (percentage of potentiation is greater than or equal to 10% but less than 50% in the presence of 100 nM of the compound)
same,% Inhibition at 1000 nM for CBZD,[2],++ (percentage of inhibition of central BZD site binding is greater than 80% in the presence of 1000 nM of the compound)
same,Percentage of potentiation alpha1,[3],++ (percentage of potentiation is greater than or equal to 50% in the presence of 100 nM of the compound)
"OC1CCN(c2ccnc(NCc3c(-c4ccc(F)cc4)nc4ccc(Cl)cn34)n2)C1 (stereo not drawn) [Compound 189, 1-(2-((6-chloro-2-(4-fluorophenyl)imidazo[1,2-a]pyridin-3-yl)methylamino)pyrimidin-4-yl)pyrrolidin-3-ol]",activation at 0.1 µM,[1],≥ 50%
same,% Inhibition at 1000 nM for CBZD,[2],++ (percentage of inhibition of central BZD site binding is greater than 80% in the presence of 1000 nM of the compound)
same,activation at 0.1 µM,[3],≥ 50%
"OC1CCN(c2cncc(Cc3c(-c4ccc(Cl)cc4)nc4ccccn34)n2)C1 (stereo not drawn) [Compound 191, 1-(6-((2-(4-chlorophenyl)imidazo[1,2-a]pyridin-3-yl)methyl)pyrazin-2-yl)pyrrolidin-3-ol]",activation at 0.1 µM,[1],10 to 50%
same,% Inhibition at 1000 nM for CBZD,[2],++ (percentage of inhibition of central BZD site binding is greater than 80% in the presence of 1000 nM of the compound)
same,activation at 0.1 µM,[3],10 to 50%
"CNNc1cncc(Cc2c(-c3ccc(Cl)cc3)nc3ccccn23)n1 [Compound 193, 2-(4-chlorophenyl)-3-((6-(2-methylhydrazinyl)pyrazin-2-yl)methyl)imidazo[1,2-a]pyridine]",activation at 0.1 µM,[1],10 to 50%
same,% Inhibition at 1000 nM for CBZD,[2],++ (percentage of inhibition of central BZD site binding is greater than 80% in the presence of 1000 nM of the compound)
same,activation at 0.1 µM,[3],10 to 50%
"O=c1nc(-n2cncn2)ccn1Cc1c(-c2ccc(Cl)cc2)nc2ccccn12 [Compound 138, 1-((2-(4-chlorophenyl)imidazo[1,2-a]pyridin-3-yl)methyl)-4-(1H-1,2,4-triazol-1-yl)pyrimidin-2(1H)-one]",activation at 0.1 µM,[1],10 to 50%
same,% Inhibition at 1000 nM for CBZD,[2],++ (percentage of inhibition of central BZD site binding is greater than 80% in the presence of 1000 nM of the compound)
same,activation at 0.1 µM,[3],10 to 50%
"O=c1ccn(Cc2c(-c3ccc(Cl)cc3)nc3ccccn23)c(=O)[nH]1 [Compound 123, 1-((2-(4-chlorophenyl)imidazo[1,2-a]pyridin-3-yl)methyl)pyrimidine-2,4(1H,3H)-dione]",activation at 0.1 µM,[1],10 to 50%
same,% Inhibition at 1000 nM for CBZD,[2],++ (percentage of inhibition of central BZD site binding is greater than 80% in the presence of 1000 nM of the compound)
same,activation at 0.1 µM,[3],10 to 50%
"CNC(=O)c1nccn1Cc1c(-c2ccc(Cl)cc2)nc2cccnn12 [Compound 88, 1-((2-(4-chlorophenyl)imidazo[1,2-b]pyridazin-3-yl)methyl)-N-methyl-1H-imidazole-2-carboxamide]",activation at 0.1 µM,[1],10 to 50%
same,% Inhibition at 1000 nM for CBZD,[2],++ (percentage of inhibition of central BZD site binding is greater than 80% in the presence of 1000 nM of the compound)
same,activation at 0.1 µM,[3],-10 to 10%
"CCc1nccn1Cc1c(-c2ccc(C)cc2)nc2ccc(C)cn12 [Compound 4, 3-((2-Ethyl-1H-imidazol-1-yl)methyl)-6-methyl-2-p-tolylH-imidazo[1,2-a]pyridine]",Percentage of potentiation alpha2,[1],0 (percentage of potentiation is between about 10% to about −10%)
same,% Inhibition at 1000 nM for CBZD,[2],++ (percentage of inhibition of central BZD site binding is greater than 80% in the presence of 1000 nM of the compound)
same,Percentage of potentiation alpha1,[3],+ (percentage of potentiation is greater than or equal to 10% but less than 50% in the presence of 100 nM of the compound)
"Cc1ccc2nc(-c3ccc(F)cc3)c(Cn3cncn3)n2c1 [Compound 63, 3-((1H-1,2,4-triazol-1-yl)methyl)-2-(4-fluorophenyl)-6-methylH-imidazo[1,2-a]pyridine]",Percentage of potentiation alpha2,[1],0 (percentage of potentiation is between about 10% to about −10%)
same,% Inhibition at 1000 nM for CBZD,[2],++ (percentage of inhibition of central BZD site binding is greater than 80% in the presence of 1000 nM of the compound)
same,Percentage of potentiation alpha1,[3],+ (percentage of potentiation is greater than or equal to 10% but less than 50% in the presence of 100 nM of the compound)
"Fc1ccc2nc(-c3ccc(Cl)cc3)c(Cn3nc4ccccc4n3)n2c1 [Compound 59, 2-((2-(4-chlorophenyl)-6-fluoroH-imidazo[1,2-a]pyridin-3-yl)methyl)-2H-benzo[d][1,2,3]triazole]",Percentage of potentiation alpha2,[1],0 (percentage of potentiation is between about 10% to about −10%)
same,% Inhibition at 1000 nM for CBZD,[2],+ (percentage of inhibition of central BZD site binding is greater than 50% but less than 80% in the presence of 1000 nM of the compound)
same,Percentage of potentiation alpha1,[3],0 (percentage of potentiation is between about 10% to about −10%)
"Cc1ccc(-c2nc3ccc(C)cn3c2Cn2ccnn2)cc1 [Compound 6, 3-((1H-1,2,3-triazol-1-yl)methyl)-6-methyl-2-p-tolylH-imidazo[1,2-a]pyridine]",Percentage of potentiation alpha2,[1],+ (percentage of potentiation is greater than or equal to 10% but less than 50% in the presence of 100 nM of the compound)
same,% Inhibition at 1000 nM for CBZD,[2],++ (percentage of inhibition of central BZD site binding is greater than 80% in the presence of 1000 nM of the compound)
same,Percentage of potentiation alpha1,[3],+ (percentage of potentiation is greater than or equal to 10% but less than 50% in the presence of 100 nM of the compound)
"CN(C)CCNc1cc(Cc2c(-c3ccc(Cl)cc3)nc3ccccn23)ncn1 [Compound 243, N^1-(6-((2-(4-chlorophenyl)imidazo[1,2-a]pyridin-3-yl)methyl)pyrimidin-4-yl)-N^2,N^2-dimethylethane-1,2-diamine]",activation at 0.1 µM,[1],10 to 50%
same,% Inhibition at 1000 nM for CBZD,[2],++ (percentage of inhibition of central BZD site binding is greater than 80% in the presence of 1000 nM of the compound)
same,activation at 0.1 µM,[3],10 to 50%
